Results taken from patent US20260015311A1, “AMINO LIPID COMPOUND, PREPARATION METHOD THEREFOR, AND USE THEREOF” (SHENZHEN SHENXIN BIOTECHNOLOGY CO., LTD., priority 2022, published 2026).
Like-named read-outs stand apart in the source and are kept apart here.

Experiments:
SD rats = conditions: Covid-19 S protein mRNA-LNP, 100 μg mRNA/animal, intramuscular once a week for 3 weeks, versus ALC-0315 and SM-102, FIG. 9
[1] = Toxicokinetic, plasma concentration of compound I-6-II after empty liposome preparation; assay type: in vivo, cynomolgus monkeys; conditions: for half-life / AUC(0-t) / Cmax / Tmax: cynomolgus monkey, plasma, intramuscular
Description: 1.9078 g of Compound I-6-II, 0.3985 g of DSPC, 0.7575 g of CHO-HP and 0.1972 g of PEG-DMG (average molecular weight of 2000) were weighed in the molar ratio of 49.5:10:39:1.5, dissolved in absolute ethanol and diluted to 237.5 mL to obtain an alcohol phase. The alcohol phase was mixed and encapsulated by using a microfluidic device (MPE-L^2), with an acetic acid-sodium acetate buffer (0.2 mol/L, pH=5) as the aqueous phase, and a volume ratio of aqueous phase:alcohol phase of 3:1. […]
The animal experiment was set up with a total of 5 groups (5 animals/gender/group), and the groups and the dosages thereof were as follows: negative control group (0 μg compound I-6-II/animal), empty liposome low-dosage group (300 μg compound I-6-II/animal) and empty liposome high-dosage group (1200 μg compound I-6-II/animal). The animals in each group were administered intramuscularly once every 2 weeks for a total of 3 times, i.e., administered on D1, D15 and D29.
Blood samples were collected from animals before and 4 h after the first (D1) and the last (D29) administration in the negative control group; and Blood samples were collected from animals before and 15 min, 1 h, 2 h, 4 h, 8 h, 24 h, 32 h and 48 h after the first (D1) and the last (D29) administration in the empty liposome group. The plasma concentration of compound I-6-II in cynomolgus monkeys was detected to investigate the exposure of compound I-6-II in cynomolgus monkeys after administration in each group of animals.
The main TK parameters of compound I-6-II in animals of the empty liposome low- and high-dosage groups after the first administration (D1) and the last administration (D29) are as shown in Table 7 below.

liver = experiment: Targeting assay, fluorescence in liver after intramuscular injection; assay type: in vivo, mice; conditions: 15 μg mRNA per animal, 6 h after injection, dissected liver
Description: The lipids were mixed with DSPC, CHO-HP, M-DMG2000 (i.e. PEG2000-DMG) in a molar ratio of 50:10:38.5:1.5 and dissolved in absolute ethanol. mRNA was dissolved in a sodium acetate solution (0.2M, pH=5.0). The samples of various prescriptions were prepared at a water phase:alcohol phase=9 ml/min: 3 ml/min by using a microfluidic equipment (MPE-L2) and a chip (SN.000035). The two phases were mixed by injecting them into the microfluidic chip according to the interface requirements, and then the drug solution was loaded into a 100KD dialysis bags, immersed in a beaker containing 1 L dialysis solution and wrapped with aluminum foil, and dialyzed at 100 rpm for 1 h at room temperature, and then the dialysis solution was replaced and the dialysis continued for 1 h.
Formulation of dialysis solution: 1×PBS+8% sucrose solution: 2 packets of 1×PBS powder were taken into a beaker, dissolved with 2 L DEPC water, added with 160 g of sucrose additionally, and mixed to obtain the 1×PBS+8% sucrose solution.
The mass ratio of mRNA:Lipids in the obtained lipid nanoparticles were about 1:10.
Fluorescent protein-encoding mRNA-LNP preparations containing Compound (I-6-II), MC3 or SM102, respectively were prepared by using the formulation method of mRNA lipid nanoparticle (LNP) preparations as described above, selecting a fluorescent protein-encoding mRNA as the mRNA and the compound (I-6-II), MC3 or SM102, respectively as the lipid.
Each preparation to be tested was administered to mice by intramuscular injection, with each animal receiving 15 μg mRNA preparation sample. 6 h after sample injection, the mice were anesthetized by isoflurane inhalation, and injected intraperitoneally with 200 μL of D-Luciferin (concentration 10 mg/ml) luciferase development substrate. […] After development of living imaging of the intramuscularly injected animals, they were immediately dissected, followed by observation of the fluorescence in the liver immediately after the dissection.

[2] = female, im, 300 ug, empty liposome low-dosage group (300 μg compound I-6-II/animal), D 1, female, Mean
[3] = female, im, 300 ug, empty liposome low-dosage group (300 μg compound I-6-II/animal), D 29, female, Mean
[4] = female, im, 1200 ug, empty liposome high-dosage group (1200 μg compound I-6-II/animal), D 1, female, Mean
[5] = female, im, 1200 ug, empty liposome high-dosage group (1200 μg compound I-6-II/animal), D 29, female, Mean
[6] = male, im, 300 ug, empty liposome low-dosage group (300 μg compound I-6-II/animal), D 1, male, Mean
[7] = male, im, 300 ug, empty liposome low-dosage group (300 μg compound I-6-II/animal), D 29, male, Mean
[8] = male, im, 1200 ug, empty liposome high-dosage group (1200 μg compound I-6-II/animal), D 1, male, Mean
[9] = male, im, 1200 ug, empty liposome high-dosage group (1200 μg compound I-6-II/animal), D 29, male, Mean

CCCCCCCCCOC(=O)CCCCCCCN(CCCCCCCC(=O)OC(CCCCCCCC)CCCCCCCC)[C@@H]1CCC[C@H](O)C1 [Compound (I-6-II)]
moderate claudication (SD rats): significantly reduced or decreased | severe swelling at the injection site (SD rats): significantly reduced or decreased | accumulation ([1]; after 4 weeks of continuous administration (3 times in total), cynomolgus monkeys): did not accumulate | half-life ([1]; both sexes, cynomolgus monkeys, over the empty liposome groups, read-out: plasma half-life): 281 to 387 min | AUC(0-t) [1, 2]: 838 ng·h/mL | Cmax [1, 2]: 79.1 ng/mL | Tmax [1, 2]: 3.2 h | half-life ([1]; female, im, 300 ug, empty liposome low-dosage group (300 μg compound I-6-II/animal), D 1, female, Mean, read-out: t1/2 (converted)): 317 min | AUC(0-t) [1, 3]: 783 ng·h/mL | Cmax [1, 3]: 59.3 ng/mL | Tmax [1, 3]: 6 h | half-life ([1]; female, im, 300 ug, empty liposome low-dosage group (300 μg compound I-6-II/animal), D 29, female, Mean, read-out: t1/2 (converted)): 215 min | AUC(0-t) [1, 4]: 4570 ng·h/mL | Cmax [1, 4]: 334 ng/mL | Tmax [1, 4]: 5 h | half-life ([1]; female, im, 1200 ug, empty liposome high-dosage group (1200 μg compound I-6-II/animal), D 1, female, Mean, read-out: t1/2 (converted)): 304 min | AUC(0-t) [1, 5]: 3090 ng·h/mL | Cmax [1, 5]: 194 ng/mL | Tmax [1, 5]: 8 h | half-life ([1]; female, im, 1200 ug, empty liposome high-dosage group (1200 μg compound I-6-II/animal), D 29, female, Mean, read-out: t1/2 (converted)): 317 min | AUC(0-t) [1, 6]: 652 ng·h/mL | Cmax [1, 6]: 50.6 ng/mL | Tmax [1, 6]: 4.8 h | half-life ([1]; male, im, 300 ug, empty liposome low-dosage group (300 μg compound I-6-II/animal), D 1, male, Mean, read-out: t1/2 (converted)): 306 min | AUC(0-t) [1, 7]: 623 ng·h/mL | Cmax [1, 7]: 42.4 ng/mL | Tmax [1, 7]: 7.2 h | half-life ([1]; male, im, 300 ug, empty liposome low-dosage group (300 μg compound I-6-II/animal), D 29, male, Mean, read-out: t1/2 (converted)): 335 min | AUC(0-t) [1, 8]: 2240 ng·h/mL | Cmax [1, 8]: 198 ng/mL | Tmax [1, 8]: 3.2 h | half-life ([1]; male, im, 1200 ug, empty liposome high-dosage group (1200 μg compound I-6-II/animal), D 1, male, Mean, read-out: t1/2 (converted)): 364 min | AUC(0-t) [1, 9]: 2280 ng·h/mL | Cmax [1, 9]: 146 ng/mL | Tmax [1, 9]: 8 h | half-life ([1]; male, im, 1200 ug, empty liposome high-dosage group (1200 μg compound I-6-II/animal), D 29, male, Mean, read-out: t1/2 (converted)): 387 min | fluorescence intensity in liver (liver): 2.49E+05
